Results: patent publication US20260294922A1, “Inhibitors of JUN N-Terminal Kinases (JNK1, JNK2, and/or JNK3) and Mitogen-Activated Protein Kinases (MAPK8, MAPK9, and/or MAPK10) and Methods of Using Same” (Baylor College of Medicine, priority 2023, published 2026)
Values after ≈ are worked out from the molar mass of the structure shown. Where two headings read alike, the source gives them in different places.

Columns and labels:
[1] = biological target: T1, JNK2 (Homo sapiens, UniProt P45984); test: Promega NanoBRET intracellular target engagement (tracer K10 displacement), JNK2; type: cell-based
[2] = Solubility
[3] = biological target: T1, JNK2; test: JNK2 kinase (intrinsic ATPase, Kinase-Glo) assay; type: biochemical
[4] = biological target: T2, JNK1 (Homo sapiens, UniProt P45983); test: JNK1 kinase (intrinsic ATPase, Kinase-Glo) assay; type: biochemical
Protocol: JNK1, JNK2, and JNK3 hydrolyze ATP to ADP without any peptide substrates. This allows a very robust and fast endpoint assay where the remaining concentration of ATP is measured (BMG ClarioStar Plus plate reader) using the Kinase-Glo Assay kit from Promega (V6711). A luminescence signal is measured, which is produced by the catalytic conversion of beetle luciferin to oxyluciferin by luciferase. Potential inhibition of luciferase (i.e., false negatives) is easily detected, because assays without kinase are always included, and less ATP than is present in this control reaction could also indicate an inhibition of luciferase, which can be excluded by a counter screen with only luciferase.
To mitigate violation of the linear initial velocity principle, which is a problem in end-point assays when doing dose-responses, the enzyme concentration was carefully optimized, in a total assay volume of 25 μL. […] The kinase reaction was done for 30 or 60 min at 30° C., and detection of leftover ATP was measured according to Promega's protocol. […] Fractional activities were obtained from normalized data. Non-linear regression (GraphPad Prism7) and a modified Morrison equation for tight binding was used to determine apparent Ki values for inhibitors, assuming no particular mode of inhibition. An orthogonal binding assay (LanthaScreen) was outsourced to ThermoFisher Scientific's SelectScreen Services to determine IC50 values.

[5] = biological target: T2, JNK1; test: Promega NanoBRET intracellular target engagement (tracer K10 displacement), JNK1; type: cell-based
[6] = biological target: T3, JNK3 (Homo sapiens, UniProt P53779); test: Promega NanoBRET intracellular target engagement (tracer K10 displacement), JNK3; type: cell-based
[7] = biological target: T3, JNK3; test: JNK3 kinase (intrinsic ATPase, Kinase-Glo) assay; type: biochemical
[8] = In vitro metabolism in human liver microsomes; conditions: human, microsomes
Protocol: (§1) The target product profile seeks to deliver JNK inhibitor as a once daily oral administration. To prioritize compounds for further development, in vitro metabolism of several CDD JNK inhibitors were determined to approximate the plasma half-life and the rate of metabolism of the compounds in vivo.

[9] = In vitro metabolism in mouse liver microsomes; conditions: for half-life: mouse, microsomes
Protocol: as §1

T1 sequence (P45984 whole entry): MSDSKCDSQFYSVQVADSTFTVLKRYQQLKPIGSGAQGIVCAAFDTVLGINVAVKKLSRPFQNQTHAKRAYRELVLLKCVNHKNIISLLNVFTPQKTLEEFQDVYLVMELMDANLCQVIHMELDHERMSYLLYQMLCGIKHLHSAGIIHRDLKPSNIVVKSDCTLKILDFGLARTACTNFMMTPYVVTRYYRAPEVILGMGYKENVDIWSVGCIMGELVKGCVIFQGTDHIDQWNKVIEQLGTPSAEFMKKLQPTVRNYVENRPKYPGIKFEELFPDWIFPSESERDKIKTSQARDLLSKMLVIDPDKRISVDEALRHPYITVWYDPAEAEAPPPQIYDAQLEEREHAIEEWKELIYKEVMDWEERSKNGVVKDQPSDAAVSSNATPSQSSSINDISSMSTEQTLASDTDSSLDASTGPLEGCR
T2 sequence (P45983 whole entry): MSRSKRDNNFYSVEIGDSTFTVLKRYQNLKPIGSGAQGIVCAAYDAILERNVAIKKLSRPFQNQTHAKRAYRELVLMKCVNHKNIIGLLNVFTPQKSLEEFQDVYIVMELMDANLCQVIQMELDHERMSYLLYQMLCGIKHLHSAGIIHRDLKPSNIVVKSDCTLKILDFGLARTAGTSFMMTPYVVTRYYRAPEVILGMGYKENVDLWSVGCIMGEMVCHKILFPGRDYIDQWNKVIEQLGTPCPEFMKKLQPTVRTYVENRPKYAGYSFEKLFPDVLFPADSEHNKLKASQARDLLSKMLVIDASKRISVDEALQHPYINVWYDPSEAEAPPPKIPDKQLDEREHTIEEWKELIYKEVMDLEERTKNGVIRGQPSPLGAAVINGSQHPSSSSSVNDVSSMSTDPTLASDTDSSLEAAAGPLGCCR
T3 sequence (P53779 whole entry): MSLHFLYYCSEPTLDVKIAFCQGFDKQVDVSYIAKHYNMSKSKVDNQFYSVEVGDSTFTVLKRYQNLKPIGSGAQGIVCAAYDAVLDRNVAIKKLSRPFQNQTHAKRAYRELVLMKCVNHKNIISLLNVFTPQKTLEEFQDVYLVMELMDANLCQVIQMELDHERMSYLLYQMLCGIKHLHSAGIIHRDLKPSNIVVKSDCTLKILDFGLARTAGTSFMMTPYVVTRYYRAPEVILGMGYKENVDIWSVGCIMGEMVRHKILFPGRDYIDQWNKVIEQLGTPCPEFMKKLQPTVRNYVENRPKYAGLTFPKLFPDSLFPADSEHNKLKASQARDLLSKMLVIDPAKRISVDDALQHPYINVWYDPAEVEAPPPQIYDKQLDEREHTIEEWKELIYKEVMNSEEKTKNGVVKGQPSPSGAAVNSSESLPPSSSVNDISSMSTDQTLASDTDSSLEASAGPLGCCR

Compound	IC50 [1] [nM]	solubility [2] [µM]	Kd ([3]; Table 3a, read-out: Kd JNK2) [nM]	Kd [4] [nM]	IC50 [5] [nM]	IC50 [6] [nM]	Kd ([7]; Table 3a, read-out: Kd JNK3) [nM]	half-life [8] [min]	half-life [9] [min]	Kd [3] [nM]	Kd [7] [nM]	metabolism in liver microsomes ([9]; liver microsomes, in words)
Cc1ccc(NC(=O)c2ccn3ncc(-c4cnc5[nH]ccc5c4)c3c2)cc1 [CDD-2288, 3-(1H-pyrrolo[2,3-b]pyridin-5-yl)-N-(p-tolyl)pyrazolo[1,5-a]pyridine-5-carboxamide]	900	1 (≈ 0.367 µg/mL)	1.63 ± 0.14	0.36 ± 0.11	830	1500	1.41 ± 0.07	–	–	–	–	–
Cc1ccc(NC(=O)c2ccn3ncc(-c4cncc5ccccc45)c3c2)cc1 [CDD-2325, 3-(isoquinolin-4-yl)-N-(p-tolyl)pyrazolo[1,5-a]pyridine-5-carboxamide]	890	2.3 (≈ 0.87 µg/mL)	1.27 ± 0.14	0.28 ± 0.12	1400	1200	1.18 ± 0.09	7.7	31	–	–	–
CNCc1ccc(NC(=O)c2ccc3ncc(-c4cnc5[nH]ccc5c4)n3c2)cc1 [CDD-2488, N-(4-((methylamino)methyl)phenyl)-3-(1H-pyrrolo[2,3-b]pyridin-5-yl)imidazo[1,2-a]pyridine-6-carboxamide]	13500	124 (≈ 49.2 µg/mL)	3.08 ± 0.16	3.1 ± 0.8	66000	34800	4.34 ± 0.6	119	126	–	–	–
CNC(=O)c1cc(NC(=O)c2cc3c(-c4cnc5[nH]ccc5c4)cccc3s2)ccc1OC [CDD-2490, N-(4-methoxy-3-(methylcarbamoyl)phenyl)-4-(1H-pyrrolo[2,3-b]pyridin-5-yl)benzo[b]thiophene-2-carboxamide]	2000	0.4 (≈ 0.183 µg/mL)	–	1.52 ± 0.3	6300	29300	–	–	–	5.37 ± 0.42	3.53	–
CNC(=O)c1ccn2ncc(-c3cnc4[nH]ccc4c3)c2c1 [CDD-2574, N-methyl-3-(1H-pyrrolo[2,3-b]pyridin-5-yl)pyrazolo[1,5-a]pyridine-5-carboxamide]	5400	11.1 (≈ 3.23 µg/mL)	12.5 ± 0.68	1.69 ± 0.39	7300	5900	6.56 ± 0.85	36.5	7.5	–	–	–
CNC(=O)c1cc2c(-c3cnc4[nH]ccc4c3)cccc2s1 [CDD-2627, N-methyl-4-(1H-pyrrolo[2,3-b]pyridin-5-yl)benzo[b]thiophene-2-carboxamide]	6100	40.3 (≈ 12.4 µg/mL)	14.8 ± 0.95	3.74 ± 0.93	14800	23000	9 ± 2.4	–	–	–	–	–
O=C(Nc1cccc(C(=O)N2CCCCC2)c1)c1cc2c(-c3cnc4[nH]ccc4c3)cccc2s1 [CDD-2630, N-(3-(piperidine-1-carbonyl)phenyl)-4-(1H-pyrrolo[2,3-b]pyridin-5-yl)benzo[b]thiophene-2-carboxamide]	230	1.6 (≈ 0.769 µg/mL)	2.47 ± 0.25	0.68 ± 0.08	430	149	1.63 ± 0.26	18.2	3.5	–	–	–
COc1ccc(NC(=O)c2cc3c(-c4cnc5[nH]ccc5c4)cccc3s2)cc1C(=O)N1CCOCC1 [CDD-2635, N-(4-methoxy-3-(morpholine-4-carbonyl)phenyl)-4-(1H-pyrrolo[2,3-b]pyridin-5-yl)benzo[b]thiophene-2-carboxamide]	325	2.6 (≈ 1.33 µg/mL)	1.54 ± 0.13	0.16 ± 0.05	186	160	0.76 ± 0.22	74.6	28.6	–	–	–
COc1ccc(NC(=O)c2cc3c(-c4cnc5[nH]ccc5c4)cccc3s2)cc1C(=O)N1CCN(C)CC1 [CDD-2636, N-(4-methoxy-3-(4-methylpiperazine-1-carbonyl)phenyl)-4-(1H-pyrrolo[2,3-b]pyridin-5-yl)benzo[b]thiophene-2-carboxamide]	820	4.9 (≈ 2.58 µg/mL)	1.93 ± 0.14	0.57 ± 0.1	1200	1200	0.54 ± 0.09	16	16.3	–	–	–
Cc1ccc(NC(=O)c2cc3c(-c4cnc5[nH]ccc5c4)cccc3s2)cc1C(=O)N(C)C [CDD-2729, N-(3-(dimethylcarbamoyl)-4-methylphenyl)-4-(1H-pyrrolo[2,3-b]pyridin-5-yl)benzo[b]thiophene-2-carboxamide]	1000	–	6.5 ± 0.63	1.2 ± 0.16	1000	781	1.93 ± 0.14	55.1	20.1	–	–	–
COc1ccc(NC(=O)c2cc3c(-c4cnc5[nH]cc(C)c5c4)cccc3s2)cc1C(=O)N(C)C [CDD-2731, N-(3-(dimethylcarbamoyl)-4-methoxyphenyl)-4-(3-methyl-1H-pyrrolo[2,3-b]pyridin-5-yl)benzo[b]thiophene-2-carboxamide]	156	3.2 (≈ 1.55 µg/mL)	1.28 ± 0.15	0.17 ± 0.05	156	124	0.81 ± 0.05	115	31.8	–	–	rapidly metabolized
CN(C)C(=O)c1cc(NC(=O)c2cc3c(-c4cnc5[nH]ccc5c4)cccc3o2)ccc1O [CDD-2855, N-(3-(dimethylcarbamoyl)-4-hydroxyphenyl)-4-(1H-pyrrolo[2,3-b]pyridin-5-yl)benzofuran-2-carboxamide]	4200	–	12.2 ± 1.3	1.52 ± 0.15	4910	5300	2.68 ± 0.2	206	115	–	–	–
NC(=O)c1cccc(NC(=O)c2cc3c(-c4cnc5[nH]ccc5c4)cccc3s2)c1 [CDD-2936, N-(3-carbamoylphenyl)-4-(1H-pyrrolo[2,3-b]pyridin-5-yl)benzo[b]thiophene-2-carboxamide]	780	–	–	1.62 ± 0.31	702	1140	–	273	68.9	9.09 ± 0.53	3.2	–
CN(C)C(=O)c1cc(O)cc(NC(=O)c2cc3c(-c4cnc5[nH]ccc5c4)cccc3s2)c1 [CDD-2937, N-(3-(dimethylcarbamoyl)-5-hydroxyphenyl)-4-(1H-pyrrolo[2,3-b]pyridin-5-yl)benzo[b]thiophene-2-carboxamide]	1460	–	4.53 ± 0.55	0.28 ± 0.05	1600	1130	1.67 ± 0.06	193	58	–	–	–
CN(C)C(=O)c1ccc(O)c(NC(=O)c2cc3c(-c4cnc5[nH]ccc5c4)cccc3s2)c1 [CDD-2938, N-(5-(dimethylcarbamoyl)-2-hydroxyphenyl)-4-(1H-pyrrolo[2,3-b]pyridin-5-yl)benzo[b]thiophene-2-carboxamide]	16100	5.4 (≈ 2.47 µg/mL)	1.22 ± 0.27	4.6 ± 1.9	11500	15400	1.41 ± 0.3	24.3	24	–	–	–
CN(C)C(=O)c1cc(NC(=O)c2cc3c(-c4cnc5[nH]ccc5c4)cccc3s2)ccn1 [CDD-3012, 4-(4-(1H-pyrrolo[2,3-b]pyridin-5-yl)benzo[b]thiophene-2-carboxamido)-N,N-dimethylpicolinamide]	3600	2 (≈ 0.883 µg/mL)	4.84 ± 0.49	0.52 ± 0.12	3800	6000	2.08 ± 0.18	548	66.7	–	–	–
Cc1c[nH]c2ncc(-c3cccc4sc(C(=O)Nc5ccc(O)c(C(=O)N(C)C)c5)cc34)cc12 [CDD-3017, N-(3-(dimethylcarbamoyl)-4-hydroxyphenyl)-4-(3-methyl-1H-pyrrolo[2,3-b]pyridin-5-yl)benzo[b]thiophene-2-carboxamide]	228	–	2.23 ± 0.12	0.39 ± 0.12	254	235	2.7 ± 0.29	358	131	–	–	–
CN(C)C(=O)c1cc(NC(=O)c2cc3c(-c4cnc5[nH]ncc5c4)cccc3s2)ccc1O [CDD-3018, N-(3-(dimethylcarbamoyl)-4-hydroxyphenyl)-4-(1H-pyrazolo[3,4-b]pyridin-5-yl)benzo[b]thiophene-2-carboxamide]	10900	1.5 (≈ 0.686 µg/mL)	11.4 ± 1	3.58 ± 0.47	–	31700	5.17 ± 0.33	531	58.8	–	–	–
